Series [1] has as its target Cytochrome P450 2D6 (Homo sapiens, UniProt P10635). The experiment in a line: Inhibition of CYP2D6 in human liver microsomes. Type of series: ADME, Microsome.
The target in series [2] is T1, Cytochrome P450 2B6 (Homo sapiens, UniProt P20813).
T1 sequence (P20813 whole entry): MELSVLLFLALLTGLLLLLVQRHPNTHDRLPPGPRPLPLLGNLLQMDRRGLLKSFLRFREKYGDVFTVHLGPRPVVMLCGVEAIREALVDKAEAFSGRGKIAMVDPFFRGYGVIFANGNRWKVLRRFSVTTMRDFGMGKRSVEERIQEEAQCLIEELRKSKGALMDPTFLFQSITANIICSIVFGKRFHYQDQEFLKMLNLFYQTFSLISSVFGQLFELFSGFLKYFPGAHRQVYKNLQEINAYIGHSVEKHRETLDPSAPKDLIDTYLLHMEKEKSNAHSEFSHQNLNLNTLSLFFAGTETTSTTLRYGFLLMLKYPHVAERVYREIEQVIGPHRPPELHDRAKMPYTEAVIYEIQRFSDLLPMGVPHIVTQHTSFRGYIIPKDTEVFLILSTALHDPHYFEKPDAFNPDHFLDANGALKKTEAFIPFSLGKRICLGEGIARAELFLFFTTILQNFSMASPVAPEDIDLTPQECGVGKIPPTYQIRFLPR
The experiment in a line: Inhibition of CYP2B6 in human liver microsomes. The class given is ADME, Microsome.

The nature of series [3]: Permeability across apical to basal side in human Caco-2 cells. The class given is ADME, cell-based.
Series [4] in a line: Metabolic stability in human liver microsomes assessed as intrinsic clearance at 0.5 uM incubated for 60 mins in presence of NADPH by tandem quadrupole-Time of Flight MS. The class given is ADME, Microsome. The following applies: 1 h. A general note: Liver microsomes are vesicles of endoplasmic reticulum, rich in cytochrome P450 enzymes.
Series [5] can be described thus: Ratio of drug concentration in Sprague-Dawley rat brain to plasma at 1 uM measured for 5 to 60 mins by LCMS analysis. The class given is ADME, cell-free. The following applies: time 5-60 min.
The target of series [6] is Cytochrome P450 3A4 (Homo sapiens, UniProt P08684). In words: Inhibition of CYP3A4 in human liver microsomes. Type of series: ADME, Microsome.
Series [7] can be described thus: Partition coefficient, log D of compound at pH 7.4 measured after 24 hrs by LCMS analysis. Type of series: physicochemical. To be noted: octanol/water, pH 7.4, 24 h.
Series [8] is described as follows: Drug excretion in Sprague-Dawley rat urine at 1 mg/kg, iv. The following applies: read-out: Drug excretion. The class given is ADME, organism-based.
A short description of series [9]: Plasma protein binding in human measured for 6 hrs by rapid equilibrium dialysis. The class given is ADME, cell-free. A general note: Equilibrium dialysis compares concentrations on both sides of a semipermeable membrane.
Series [10] concerns Plasmodium falciparum. In words: Antiparasitic activity against asexual blood stage Plasmodium falciparum 3D7 incubated for 72 hrs by SYBR Green assay. To be noted: 3D7, 72 h. The class given is functional, organism-based.
Series [11] concerns the target T2, Cytochrome P450 1A2 (Homo sapiens, UniProt P05177).
T2 sequence (P05177 whole entry): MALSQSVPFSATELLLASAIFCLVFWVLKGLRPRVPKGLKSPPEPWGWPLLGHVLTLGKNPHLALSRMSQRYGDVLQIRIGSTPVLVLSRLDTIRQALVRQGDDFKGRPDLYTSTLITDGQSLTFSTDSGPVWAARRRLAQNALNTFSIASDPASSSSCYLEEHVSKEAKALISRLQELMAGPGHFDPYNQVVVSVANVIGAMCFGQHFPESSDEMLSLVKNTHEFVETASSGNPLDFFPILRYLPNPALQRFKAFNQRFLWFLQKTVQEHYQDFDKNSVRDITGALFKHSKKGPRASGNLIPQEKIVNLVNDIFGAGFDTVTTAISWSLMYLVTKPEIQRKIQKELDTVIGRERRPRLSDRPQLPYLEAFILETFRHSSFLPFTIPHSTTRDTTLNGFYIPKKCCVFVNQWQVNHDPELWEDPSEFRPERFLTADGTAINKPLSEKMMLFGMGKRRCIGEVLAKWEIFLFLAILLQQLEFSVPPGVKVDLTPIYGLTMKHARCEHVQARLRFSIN
The experiment in a line: Inhibition of CYP1A2 in human liver microsomes. Type of series: ADME, Microsome.

The nature of series [12]: Plasma protein binding in rat measured for 6 hrs by rapid equilibrium dialysis. Type of series: ADME, cell-free.
Series [13] can be described thus: Cytotoxicity against human HepG2 cells by Cell Titer Glo assay. The class given is toxicity, cell-based.
Series [14] is described as follows: Cytotoxicity against human Jurkat cells by Cell Titer Glo assay. The class given is toxicity, cell-based.
Series [15] in a line: Protein binding in human hepatocytes. The class given is ADME, cell-based, Hepatocyte. The following applies: read-out: PB (converted).
Series [16] has as its target Cytochrome P450 2C19 (Homo sapiens, UniProt P33261). The experiment in a line: Inhibition of CYP2C19 in human liver microsomes. The class given is ADME, Microsome.
The nature of series [17]: Oral bioavailability in overnight-fasted male Sprague-Dawley rat at 3 mg/kg measured upto 72 hrs by LCMS analysis. The class given is ADME, organism-based. To be noted: in vivo.
Series [18] in a line: Kinetic solubility of compound at pH 6.5 measured after 30 mins by nephelometry. Type of series: physicochemical. The following applies: buffer, pH 6.5, read-out: Kinetic_solubility.
Series [19] addresses Dihydroorotate dehydrogenase (quinone), mitochondrial (Homo sapiens, UniProt Q02127). In words: Inhibition of C-terminal His6-tagged recombinant human DHODH (29 to 395 residues) N-terminally truncated soluble domain extracted from Escherichia coli phage resistant BL21-DE3 using CoQD/DHA/DCIP as substrates.
Series [20] deals with Albumin (Homo sapiens, UniProt P02768). The experiment in a line: Protein binding to albumin (unknown origin) in ALBUMAX medium. To be noted: read-out: PB (converted). The class given is ADME.
The nature of series [21]: Oral absorption in overnight-fasted male Sprague-Dawley rat at 3 mg/kg measured upto 72 hrs by LCMS analysis. Type of series: ADME, organism-based. To be noted: in vivo.
The subject of series [22] is Plasmodium falciparum. The experiment in a line: Antiparasitic activity against Plasmodium falciparum 3D7 assessed as lag time before killing at 10 times EC50 pretreated for 120 hrs followed by compound removal and replacement of media without compound measured after 28 days by cell killing assay. The class given is functional.
A short description of series [23]: Half life in overnight-fasted male Sprague-Dawley rat at 3 mg/kg, po or 1 mg/kg, iv measured upto 72 hrs by LCMS analysis. Type of series: ADME, organism-based. The following applies: in vivo.
In series [24] the test system is Plasmodium falciparum. In words: Antiparasitic activity against Plasmodium falciparum 3D7 assessed as parasitic reduction ratio at 10 times EC50 pretreated for 120 hrs followed by compound removal and replacement of media without compound measured after 28 days by cell killing assay. The class given is functional.
Series [25] has as its target T3, Cytochrome P450 2C8 (Homo sapiens, UniProt P10632).
T3 sequence (P10632 whole entry): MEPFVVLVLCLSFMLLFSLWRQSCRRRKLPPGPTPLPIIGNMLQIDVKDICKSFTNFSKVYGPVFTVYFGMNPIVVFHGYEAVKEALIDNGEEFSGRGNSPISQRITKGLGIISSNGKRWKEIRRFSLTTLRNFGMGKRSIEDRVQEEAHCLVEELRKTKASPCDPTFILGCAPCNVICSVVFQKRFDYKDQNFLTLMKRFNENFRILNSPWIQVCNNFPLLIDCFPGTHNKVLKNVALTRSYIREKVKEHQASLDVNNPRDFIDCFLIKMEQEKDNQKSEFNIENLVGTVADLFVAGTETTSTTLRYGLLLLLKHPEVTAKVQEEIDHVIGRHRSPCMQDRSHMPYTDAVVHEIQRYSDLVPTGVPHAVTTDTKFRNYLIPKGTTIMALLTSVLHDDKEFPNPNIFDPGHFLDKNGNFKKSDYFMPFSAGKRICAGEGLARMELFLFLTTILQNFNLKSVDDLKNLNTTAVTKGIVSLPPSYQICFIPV
The experiment in a line: Inhibition of CYP2C8 in human liver microsomes. Type of series: ADME, Microsome.

Structures are written as SMILES. In brackets after ≈: the same amount, converted by molar mass. Where only a bound is given, the exact number is not on record here.

Chain of Cytochrome P450 2D6 (P10635 whole entry): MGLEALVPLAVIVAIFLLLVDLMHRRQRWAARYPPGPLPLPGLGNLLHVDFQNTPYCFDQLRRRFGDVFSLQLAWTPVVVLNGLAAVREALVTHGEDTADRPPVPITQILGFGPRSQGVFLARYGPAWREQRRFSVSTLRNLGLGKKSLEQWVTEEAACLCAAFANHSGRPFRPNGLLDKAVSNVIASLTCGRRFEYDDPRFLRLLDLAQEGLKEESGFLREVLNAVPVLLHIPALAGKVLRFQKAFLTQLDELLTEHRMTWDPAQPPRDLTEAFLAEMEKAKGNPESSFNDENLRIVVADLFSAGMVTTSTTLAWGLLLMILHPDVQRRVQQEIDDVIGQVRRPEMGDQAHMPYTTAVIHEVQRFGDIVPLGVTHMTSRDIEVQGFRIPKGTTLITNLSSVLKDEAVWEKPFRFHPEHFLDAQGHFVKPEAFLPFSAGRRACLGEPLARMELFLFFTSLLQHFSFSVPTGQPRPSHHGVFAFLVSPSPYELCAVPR
Chain of Cytochrome P450 3A4 (P08684 whole entry): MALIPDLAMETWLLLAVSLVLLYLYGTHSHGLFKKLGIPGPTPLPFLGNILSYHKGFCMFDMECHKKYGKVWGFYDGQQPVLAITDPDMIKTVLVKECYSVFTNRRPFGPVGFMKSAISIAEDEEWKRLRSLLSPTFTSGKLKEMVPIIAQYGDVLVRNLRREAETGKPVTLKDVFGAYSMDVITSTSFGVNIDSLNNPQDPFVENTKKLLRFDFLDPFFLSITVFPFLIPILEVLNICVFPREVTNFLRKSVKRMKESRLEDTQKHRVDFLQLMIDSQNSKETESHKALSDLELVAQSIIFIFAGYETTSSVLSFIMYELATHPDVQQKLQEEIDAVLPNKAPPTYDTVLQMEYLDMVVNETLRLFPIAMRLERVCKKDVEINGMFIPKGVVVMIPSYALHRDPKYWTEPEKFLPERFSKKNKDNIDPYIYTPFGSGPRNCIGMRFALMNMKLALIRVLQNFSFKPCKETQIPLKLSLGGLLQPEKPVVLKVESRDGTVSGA
Chain of Albumin (P02768 whole entry): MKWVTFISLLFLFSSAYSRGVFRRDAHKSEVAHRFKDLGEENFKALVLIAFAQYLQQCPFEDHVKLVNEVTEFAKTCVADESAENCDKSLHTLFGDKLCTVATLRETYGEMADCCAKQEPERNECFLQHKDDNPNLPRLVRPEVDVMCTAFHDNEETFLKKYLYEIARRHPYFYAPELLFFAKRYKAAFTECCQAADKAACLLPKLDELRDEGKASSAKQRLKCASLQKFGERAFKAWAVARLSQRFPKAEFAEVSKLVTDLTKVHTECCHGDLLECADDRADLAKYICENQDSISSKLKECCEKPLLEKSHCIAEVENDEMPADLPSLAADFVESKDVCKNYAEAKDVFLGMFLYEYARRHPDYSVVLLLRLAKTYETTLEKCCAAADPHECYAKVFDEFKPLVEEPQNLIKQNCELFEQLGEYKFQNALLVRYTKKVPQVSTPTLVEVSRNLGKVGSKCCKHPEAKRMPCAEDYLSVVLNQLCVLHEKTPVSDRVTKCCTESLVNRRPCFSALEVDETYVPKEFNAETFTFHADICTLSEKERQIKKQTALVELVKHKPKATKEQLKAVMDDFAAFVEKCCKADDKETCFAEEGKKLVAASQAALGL
Chain of Cytochrome P450 2C19 (P33261 whole entry): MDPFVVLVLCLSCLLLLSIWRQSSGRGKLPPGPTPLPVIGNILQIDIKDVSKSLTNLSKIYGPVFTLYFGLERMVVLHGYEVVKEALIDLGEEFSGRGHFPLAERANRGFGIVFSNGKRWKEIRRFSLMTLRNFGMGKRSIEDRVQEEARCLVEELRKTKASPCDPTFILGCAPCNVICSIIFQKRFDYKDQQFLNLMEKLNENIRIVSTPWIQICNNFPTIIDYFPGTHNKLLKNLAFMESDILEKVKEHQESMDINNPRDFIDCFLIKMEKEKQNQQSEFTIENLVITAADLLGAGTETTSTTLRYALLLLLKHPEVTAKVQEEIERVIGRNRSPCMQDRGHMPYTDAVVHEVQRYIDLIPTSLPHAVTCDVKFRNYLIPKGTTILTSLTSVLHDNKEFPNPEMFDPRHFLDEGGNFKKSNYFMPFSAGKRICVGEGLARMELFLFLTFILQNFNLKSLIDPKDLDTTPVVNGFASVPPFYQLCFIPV
Chain of Dihydroorotate dehydrogenase (quinone), mitochondrial (Q02127 whole entry, the tested form may be a part): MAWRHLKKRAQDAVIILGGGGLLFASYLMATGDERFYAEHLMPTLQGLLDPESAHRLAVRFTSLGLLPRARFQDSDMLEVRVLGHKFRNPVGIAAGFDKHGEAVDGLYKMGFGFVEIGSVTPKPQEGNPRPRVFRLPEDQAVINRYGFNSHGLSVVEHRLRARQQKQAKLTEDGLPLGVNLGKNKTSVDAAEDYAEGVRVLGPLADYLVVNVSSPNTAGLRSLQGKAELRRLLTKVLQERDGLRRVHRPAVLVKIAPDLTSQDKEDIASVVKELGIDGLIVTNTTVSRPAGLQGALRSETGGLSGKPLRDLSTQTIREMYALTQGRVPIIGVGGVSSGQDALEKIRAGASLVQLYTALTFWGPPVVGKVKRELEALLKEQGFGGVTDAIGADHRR

For `Cn1nc2c(=O)n(C3CC3)ccc2c1[C@](O)(c1cnc(C(F)(F)F)c(Cl)c1)C(F)(F)F`, the IC50 in series [1] is above 20 µM; in series [2] it was above 20 µM; in series [6], above 20 µM; in [11], above 20 µM; in series [16], 6.7 µM; in [19] it was above 30 µM. The permeability result in series [3] was “Permeable”. The “intrinsic clearance (CLint)” value in series [4] was below 3 µL/min/mg. For the same compound, the BPR in series [5] is on record as 0.79. In addition, the logD in series [7] is reported as 2.3. Besides, in [8], the dose excreted is below 1%. Moreover, the PPB in series [9] turned out to be 68.5%; in series [12] it was 75.9%. In series [10], this compound returned an EC50 of 0.001 µM. The CC50 in [13] and in series [14] was above 20 µM in each case. Also, the fraction unbound in series [15] is 0.249; in series [20] it was 0.338. In addition, the F in series [17] is above 63%. Further, the solubility kinetic at 0.5 h in [18] stood at 20 µM (≈ 9.34 µg/mL). This compound also showed a Fa at 72 h in series [21] of 100%.

For the compound `Cn1nc2c(=O)n(C3CC3)ncc2c1[C@](N)(c1ccc(C(F)(F)F)c(Cl)c1)C1CC1`, the IC50 is above 20 µM in [1]; above 20 µM in series [2]; above 20 µM in series [6]; above 20 µM in [11]; 7 µM in [25]. In addition, in [4], the “intrinsic clearance (CLint)” value is below 3 µL/min/mg. The Time in series [22] is around 26 h. The dose excreted in series [8] is below 1%. For the same compound, the PPB was determined as 90.8% in series [9] and 86% in series [12]. The compound also yielded a concentration for a half-maximal effect (EC50) in series [10] of 0.007 µM. The compound also showed a t1/2 in series [23] of 17 h. Moreover, in series [24], the “log(activity)” value came to 3.1. Further, the CC50 in series [13] and in [14] was above 20 µM in each case. Moreover, the figures for the fraction unbound in series [15] and in [20] were 0.335 and 0.239, respectively. The F in series [17] was found to be 79%. For the same compound, the solubility kinetic at 0.5 h in [18] was found to be 12.5 µM (≈ 5.47 µg/mL). This compound also showed a Fa at 72 h in [21] of 81%.

The IC50 is the concentration at which inhibition is half-maximal. The term logD denotes lipophilicity at a set pH, counting ionised and neutral species. The low end stands for lower lipophilicity, the high end for higher lipophilicity. The EC50 is the concentration giving half of the maximal effect. A word on the CC50: it is the concentration that lowers cell viability or growth by half. The low end stands for greater toxicity to the cells, the high end for lower toxicity to the cells.

The values above are taken from ChEMBL document CHEMBL6087456 (J Med Chem, 2025).
